Entries after “also recorded” stand apart in the source; their conditions may differ.
Columns and labels:
Type in all cases: in vivo, mice (BALB/c)
[1] = test system: eosinophils, neutrophils and mononuclear cells in bronchoalveolar lavage; assay: Differential count of eosinophils, neutrophils and mononuclear cells in bronchoalveolar lavage, airway hypersensitivity model; conditions: 50 mg/Kg by inhalation
Protocol: (§1) The ovalbumin-induced airway hypersensitivity model (BOLANDI et al., 2021), used as the basis for the present findings, induces pathophysiological and structural changes which characterize respiratory diseases such as asthma and chronic obstructive pulmonary disease (COPD).
(§2) The mice were divided into groups of six animals and immunized with a subcutaneous injection of 10 μg of ovalbumin (Sigma, St. Louis, MO) diluted in 2 mg/ml alum (Alunmlmject; Pierce, Rockford, IL), followed by of a booster injection 14 days later. From day 28 onwards, the mice were placed in an acrylic box and subjected to inhalation exposure to ovalbumin (1%) for 15 minutes per day, for five consecutive days. The ovalbumin solution was nebulized using an ultrasonic inhaler (RespiraMax, Brazil). The protocol used to induce airway hypersensitivity was performed as previously described (POSSA, 2013). The naive group was challenged with saline only. To carry out the treatments, two hours before each challenge via inhalation, the mice were treated with braylin ([…] and 12.5 mg/kg, via inhalation), dexamethasone (30 mg/kg via intraperitoneal) or vehicle (10% propylene glycol in saline, inhaled).
(§3) The animals were euthanized with a lethal dose of ketamine and xylazine (300 mg/Kg and 30 mg/Kg, respectively via i.p.) 24 hours after the last challenge to collect bronchoalveolar lavage (BAL). Intratracheal instillation of 1 ml of ice-cold PBS was performed, followed by BAL collection, and this procedure was repeated. The first wash was centrifuged and the supernatant stored at −70° C. for subsequent quantification of cytokines by ELISA. The second wash was centrifuged, the supernatant was discarded and the pellets were resuspended in 1 ml of saline to count total leukocytes using a Neubauer chamber. To carry out the differential cell count, 10,000 cells were collected from the previous resuspension, centrifuged in Cytospin® and stained with hematoxylin and eosin (VASCONCELOS, 2009).

IL-4 = IL-4 in bronchoalveolar lavage by ELISA, airway hypersensitivity model; conditions: p<0.05
Protocol: as §1
(§4) The mice were divided into groups of six animals and immunized with a subcutaneous injection of 10 μg of ovalbumin (Sigma, St. Louis, MO) diluted in 2 mg/ml alum (Alunmlmject; Pierce, Rockford, IL), followed by of a booster injection 14 days later. From day 28 onwards, the mice were placed in an acrylic box and subjected to inhalation exposure to ovalbumin (1%) for 15 minutes per day, for five consecutive days. The ovalbumin solution was nebulized using an ultrasonic inhaler (RespiraMax, Brazil). […]
The animals were euthanized with a lethal dose of ketamine and xylazine (300 mg/Kg and 30 mg/Kg, respectively via i.p.) 24 hours after the last challenge to collect bronchoalveolar lavage (BAL). […] The first wash was centrifuged and the supernatant stored at −70° C. for subsequent quantification of cytokines by ELISA. […]
(§5) The bronchoalveolar lavage supernatant stored at −70° C. was thawed and used to quantify the cytokines IL-4, IL-5 and IL-13 by the ELISA method, using specific kits (R&D System, Minnesota, MN, USA) for mice, following the manufacturer's instructions (VASCONCELOS, 2009).

[2] = test system: PAS-labeled mucus-producing goblet cells of the bronchiolar epithelium; assay: Goblet cell metaplasia / mucus production, PAS-stained lung sections, airway hypersensitivity model; conditions: braylin treatment (FIG. 5: 50 mg/kg/in), p<0.05
Protocol: as §1, §4
After collecting the bronchoalveolar lavage, lung perfusion was performed intratracheally with 1 ml formalin (4%) and, subsequently, the right lobe of the lungs of each animal was removed and fixed in the same solution for histological and morphometric analysis. The sections were stained with hematoxylin and eosin to quantify inflammatory cells by optical microscopy according to the number of cores present in the fields with the largest population of cells. To quantify mucus production, staining was performed with periodic acid-Schiff (PAS) and the marked areas were quantified. […]

[3] = test system: total inflammatory cells in bronchoalveolar lavage (airway hypersensitivity model in mice); assay: Total inflammatory cell count in bronchoalveolar lavage, ovalbumin-induced airway hypersensitivity model; conditions: vs vehicle
Protocol: as §1
as §4, with “Brazil). The protocol used to induce airway hypersensitivity was performed as previously described (POSSA, 2013). The naive group was challenged with saline only.” for “Brazil).”
as §3

[4] = test system: inflammatory cells in lung tissue; assay: Pulmonary inflammatory infiltrate, HE-stained lung sections, airway hypersensitivity model; conditions: 50 mg/kg inhaled, vs vehicle, p<0.05
Protocol: The mice were divided into groups of six animals and immunized with a subcutaneous injection of 10 μg of ovalbumin (Sigma, St. Louis, MO) diluted in 2 mg/ml alum (Alunmlmject; Pierce, Rockford, IL), followed by of a booster injection 14 days later. From day 28 onwards, the mice were placed in an acrylic box and subjected to inhalation exposure to ovalbumin (1%) for 15 minutes per day, for five consecutive days. The ovalbumin solution was nebulized using an ultrasonic inhaler (RespiraMax, Brazil). […] The naive group was challenged with saline only.
After collecting the bronchoalveolar lavage, lung perfusion was performed intratracheally with 1 ml formalin (4%) and, subsequently, the right lobe of the lungs of each animal was removed and fixed in the same solution for histological and morphometric analysis. The sections were stained with hematoxylin and eosin to quantify inflammatory cells by optical microscopy according to the number of cores present in the fields with the largest population of cells. […] 10 fields (400×) per animal were analyzed for a total of 5 animals, and the data were used to calculate the average number of cells per mm^2, or the area stained with PAS. The program used to assist in cell counting and area determination was Image-Pro PLUS, version 4.5 (Media Cybernetics, Silver Spring, USA).

IL-5 = IL-5 in bronchoalveolar lavage by ELISA, airway hypersensitivity model
Protocol: as §1, §2
as §3, with “To carry out the differential cell count, 10,000 cells were collected from the previous resuspension, centrifuged in Cytospin® and stained with hematoxylin and eosin (VASCONCELOS, 2009).” left out
as §5

IL-13 = IL-13 in bronchoalveolar lavage by ELISA, airway hypersensitivity model
Protocol: as §1, §2
as §3, with “To carry out the differential cell count, 10,000 cells were collected from the previous resuspension, centrifuged in Cytospin® and stained with hematoxylin and eosin (VASCONCELOS, 2009).” left out
as §5

COc1cc2ccc(=O)oc2c2c1OC(C)(C)C=C2 [braylin]
quantity of mononuclear cells in BAL ([1]; compared with naive group): approached the values found in mice in the naive group | amount of eosinophils present in BAL ([1]; vs vehicle, p<0.05): reduced | amount of neutrophils present in BAL ([1]; vs vehicle, p<0.05): reduced | level of IL-4 in BAL (IL-4; 25 mg/kg inhaled): reduced | level of IL-4 in BAL (IL-4; 50 mg/kg inhaled): reduced | Goblet cell labeling (PAS) in the bronchiolar epithelium, mucus production [2]: reduced | number of inflammatory cells in the BAL ([3]; 12.5 mg/kg by inhalation): no effect | number of inflammatory cells in the BAL ([3]; 25 mg/kg by inhalation, p<0.05): reduced | number of inflammatory cells in the BAL ([3]; 50 mg/kg by inhalation, 5 consecutive days, p<0.05): significantly lower; also recorded: reduced | number of inflammatory cells in the BAL ([3]; 50 mg/kg intraperitoneally, 5 consecutive days, p<0.05): significantly lower | number of inflammatory cells in the BAL ([3]; 100 mg/kg by inhalation, p<0.05): reduced | lung inflammation, presence of inflammatory cells in HE-stained lung [4]: reduction in lung inflammation | level of IL-5 in BAL (IL-5; 12.5 mg/kg inhaled): significant reduction | level of IL-5 in BAL (IL-5; 25 mg/kg inhaled, p<0.05): reduced | level of IL-5 in BAL (IL-5; 50 mg/kg inhaled, p<0.05): reduced | level of IL-13 in BAL (IL-13; 12.5 mg/kg inhaled): significant reduction | level of IL-13 in BAL (IL-13; 25 mg/kg inhaled, p<0.05): reduced | level of IL-13 in BAL (IL-13; 50 mg/kg inhaled, p<0.05): reduced

From patent US20250161263A1, “USE OF A COMPOUND, PHARMACEUTICAL FORMULATION, METHOD OF TREATMENT FOR ASTHMA AND/OR COPD, AND COMPOUND” (FUNDAÇÃO OSWALDO CRUZ, priority 2022, published 2025)
